Reference: article PMC9086869 (RSC Advances, 2018)

Target: recombinant human CYP3A4 enzyme (Homo sapiens, UniProt P08684)
Test: CYP3A4-Glo Screening System luminescent CYP3A4 inhibition assay
Conditions: for CYP3A4 inhibition activity (in words): compared with pterostilbene and ellipticine

Sequence of recombinant human CYP3A4 enzyme (P08684 whole entry): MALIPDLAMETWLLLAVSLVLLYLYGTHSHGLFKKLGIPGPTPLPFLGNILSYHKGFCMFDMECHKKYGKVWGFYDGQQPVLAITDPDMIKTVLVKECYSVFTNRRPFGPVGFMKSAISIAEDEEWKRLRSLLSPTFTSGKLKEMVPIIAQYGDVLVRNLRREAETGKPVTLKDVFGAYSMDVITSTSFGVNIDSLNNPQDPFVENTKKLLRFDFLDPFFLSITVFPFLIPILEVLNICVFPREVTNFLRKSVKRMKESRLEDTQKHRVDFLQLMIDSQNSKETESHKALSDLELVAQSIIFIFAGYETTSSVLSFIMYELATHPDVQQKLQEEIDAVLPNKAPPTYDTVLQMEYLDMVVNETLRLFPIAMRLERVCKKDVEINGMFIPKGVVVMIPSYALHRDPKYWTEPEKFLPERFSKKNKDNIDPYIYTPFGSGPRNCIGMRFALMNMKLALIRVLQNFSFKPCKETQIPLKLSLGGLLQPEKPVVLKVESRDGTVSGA

IC50 [µM] | CYP3A4 inhibition activity (in words) | SMILES
18.2 ± 1.72 | weaker | CC(C)=CCOc1c2ccoc2cc2oc(=O)ccc12 [Isoimperatorin]
1.12 ± 0.056 | – | COc1cc(/C=C/c2ccc(O)cc2)cc(OC)c1 [Pterostilbene]
14.8 ± 2.09 | weaker | O=C(/C=C/c1ccc(O)cc1)CC(=O)/C=C/c1ccc(O)cc1 [Bisdemethoxycurcumin]

SMILES | IC50 [µM] | CYP3A4 inhibition activity (in words)
Cc1c2ccncc2c(C)c2c1[nH]c1ccccc12 [Ellipticine] | 0.052 ± 0.003 | –
